For orientation: inhibition means the share of the control response that was lost under treatment.

Five molecules from ChEMBL document CHEMBL3132769, “Fragment growing to retain or alter the selectivity of anchored kinase hinge-binding fragments” (Medchemcomm, 2014) can be followed below.

SMILES strings stand for the structures.

The subject of test [1] is T1, Receptor-type tyrosine-protein kinase FLT3 (Homo sapiens), P36888 [D835Y].
T1 sequence (whole entry): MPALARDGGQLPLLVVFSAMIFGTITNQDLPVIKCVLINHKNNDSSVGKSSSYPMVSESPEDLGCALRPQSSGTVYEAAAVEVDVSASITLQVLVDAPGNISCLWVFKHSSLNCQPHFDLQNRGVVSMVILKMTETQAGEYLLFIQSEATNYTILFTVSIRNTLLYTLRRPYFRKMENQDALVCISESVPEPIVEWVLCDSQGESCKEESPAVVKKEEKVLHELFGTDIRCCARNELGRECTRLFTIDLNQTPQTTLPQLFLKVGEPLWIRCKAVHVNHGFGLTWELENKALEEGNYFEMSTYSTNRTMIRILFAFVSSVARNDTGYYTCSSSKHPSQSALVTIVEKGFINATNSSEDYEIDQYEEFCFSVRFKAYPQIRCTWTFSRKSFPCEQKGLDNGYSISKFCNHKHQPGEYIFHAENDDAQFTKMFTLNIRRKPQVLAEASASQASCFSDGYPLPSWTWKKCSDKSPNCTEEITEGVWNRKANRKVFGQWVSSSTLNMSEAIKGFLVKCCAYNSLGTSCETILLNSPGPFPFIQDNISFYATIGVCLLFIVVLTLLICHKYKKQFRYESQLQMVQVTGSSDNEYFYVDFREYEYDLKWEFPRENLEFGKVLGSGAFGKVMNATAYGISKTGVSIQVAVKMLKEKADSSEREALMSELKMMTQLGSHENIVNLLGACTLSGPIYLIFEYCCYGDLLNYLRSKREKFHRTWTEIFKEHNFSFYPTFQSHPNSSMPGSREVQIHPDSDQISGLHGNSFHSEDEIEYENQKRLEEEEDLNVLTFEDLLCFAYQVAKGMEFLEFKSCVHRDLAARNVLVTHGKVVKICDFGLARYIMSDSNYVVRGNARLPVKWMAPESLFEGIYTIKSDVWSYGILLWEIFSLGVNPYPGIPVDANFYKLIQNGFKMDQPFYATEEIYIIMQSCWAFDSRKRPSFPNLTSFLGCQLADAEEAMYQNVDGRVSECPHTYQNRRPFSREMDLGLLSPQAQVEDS
Nature of the test: Inhibition of human FLT3 D835Y mutant catalytic domain expressed in baculovirus assessed as substrate phosphorylation using fluorescence-labelled peptides as substrate at 8 uM after 90 mins by microfluidic peptide phosphorylation assay.

Test [2] deals with T2, Interleukin-1 receptor-associated kinase 4 (Homo sapiens) (UniProt Q9NWZ3).
T2 sequence (whole entry): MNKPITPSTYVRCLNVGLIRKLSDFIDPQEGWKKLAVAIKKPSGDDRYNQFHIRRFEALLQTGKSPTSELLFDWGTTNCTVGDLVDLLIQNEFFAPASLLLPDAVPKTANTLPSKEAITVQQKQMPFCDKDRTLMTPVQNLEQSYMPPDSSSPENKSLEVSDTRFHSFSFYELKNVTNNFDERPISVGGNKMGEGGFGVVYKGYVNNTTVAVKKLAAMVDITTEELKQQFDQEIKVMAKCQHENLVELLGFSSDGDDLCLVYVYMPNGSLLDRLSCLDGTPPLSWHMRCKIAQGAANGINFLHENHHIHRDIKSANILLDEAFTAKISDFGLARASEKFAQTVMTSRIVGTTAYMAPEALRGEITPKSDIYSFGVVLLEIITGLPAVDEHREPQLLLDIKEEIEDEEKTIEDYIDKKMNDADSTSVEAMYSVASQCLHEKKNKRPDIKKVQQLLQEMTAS
Kind of test: Inhibition of human IRAK4 catalytic domain expressed in baculovirus assessed as substrate phosphorylation using fluorescence-labelled peptides as substrate at 0.2 uM after 90 mins by microfluidic peptide phosphorylation assay.

The target in test [3] is Platelet-derived growth factor receptor alpha (Homo sapiens) (UniProt P16234). Nature of the test: Inhibition of human PDGFR alpha catalytic domain expressed in baculovirus assessed as substrate phosphorylation using fluorescence-labelled peptides as substrate at 9 uM after 90 mins by microfluidic peptide phosphorylation assay.
Platelet-derived growth factor receptor alpha (Homo sapiens), sequence (P16234 whole entry, the tested form may be a part): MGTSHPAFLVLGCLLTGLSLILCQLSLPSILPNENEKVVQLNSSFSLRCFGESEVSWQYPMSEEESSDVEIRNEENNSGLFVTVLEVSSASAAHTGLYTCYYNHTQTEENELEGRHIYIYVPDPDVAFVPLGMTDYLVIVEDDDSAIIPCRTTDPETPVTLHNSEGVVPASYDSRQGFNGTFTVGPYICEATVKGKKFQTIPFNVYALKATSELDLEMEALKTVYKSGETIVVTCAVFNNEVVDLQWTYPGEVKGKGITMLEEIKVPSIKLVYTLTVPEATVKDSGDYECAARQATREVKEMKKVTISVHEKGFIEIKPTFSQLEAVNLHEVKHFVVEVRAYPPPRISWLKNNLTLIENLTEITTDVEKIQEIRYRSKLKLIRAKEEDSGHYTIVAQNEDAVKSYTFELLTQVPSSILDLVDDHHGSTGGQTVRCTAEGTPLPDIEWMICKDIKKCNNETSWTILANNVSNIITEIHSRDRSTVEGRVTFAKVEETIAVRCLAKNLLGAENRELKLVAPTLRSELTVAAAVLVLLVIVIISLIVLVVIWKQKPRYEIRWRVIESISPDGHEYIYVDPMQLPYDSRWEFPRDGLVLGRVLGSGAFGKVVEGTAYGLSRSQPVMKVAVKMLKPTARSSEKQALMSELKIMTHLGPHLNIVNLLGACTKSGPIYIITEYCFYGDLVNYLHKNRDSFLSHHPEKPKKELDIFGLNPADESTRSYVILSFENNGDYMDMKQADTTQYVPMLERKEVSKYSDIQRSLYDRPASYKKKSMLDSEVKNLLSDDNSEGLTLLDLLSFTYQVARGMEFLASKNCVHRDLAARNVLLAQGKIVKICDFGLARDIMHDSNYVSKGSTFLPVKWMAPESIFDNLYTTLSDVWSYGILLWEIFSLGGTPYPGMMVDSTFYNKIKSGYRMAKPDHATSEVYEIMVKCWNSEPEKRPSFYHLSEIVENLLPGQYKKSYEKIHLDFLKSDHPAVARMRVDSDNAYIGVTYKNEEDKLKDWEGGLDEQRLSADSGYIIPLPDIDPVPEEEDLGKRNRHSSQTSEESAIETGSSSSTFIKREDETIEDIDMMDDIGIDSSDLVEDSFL
Test [4] concerns the target T3, Protein kinase C epsilon type (Homo sapiens) (UniProt Q02156).
T3 sequence (whole entry): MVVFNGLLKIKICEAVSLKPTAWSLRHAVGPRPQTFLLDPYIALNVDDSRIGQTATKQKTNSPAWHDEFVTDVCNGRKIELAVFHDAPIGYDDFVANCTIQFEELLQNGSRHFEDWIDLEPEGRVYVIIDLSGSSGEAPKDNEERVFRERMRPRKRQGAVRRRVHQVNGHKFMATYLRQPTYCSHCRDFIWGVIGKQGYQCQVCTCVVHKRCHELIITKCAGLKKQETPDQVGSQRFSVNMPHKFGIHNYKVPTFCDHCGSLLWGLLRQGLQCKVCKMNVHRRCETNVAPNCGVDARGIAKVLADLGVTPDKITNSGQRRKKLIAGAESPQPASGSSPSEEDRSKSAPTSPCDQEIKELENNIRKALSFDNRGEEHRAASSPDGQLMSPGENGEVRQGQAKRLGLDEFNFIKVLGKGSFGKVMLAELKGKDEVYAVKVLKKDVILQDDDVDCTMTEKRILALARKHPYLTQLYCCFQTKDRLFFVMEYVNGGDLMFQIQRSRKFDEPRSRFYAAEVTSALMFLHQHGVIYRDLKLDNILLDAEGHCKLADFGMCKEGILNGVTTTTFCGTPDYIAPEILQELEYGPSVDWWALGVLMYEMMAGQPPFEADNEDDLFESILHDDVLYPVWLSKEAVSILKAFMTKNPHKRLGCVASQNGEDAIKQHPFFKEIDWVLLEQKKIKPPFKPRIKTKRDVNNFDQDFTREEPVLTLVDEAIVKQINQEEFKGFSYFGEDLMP
Kind of test: Inhibition of human truncated PKC epsilon expressed in baculovirus assessed as substrate phosphorylation using fluorescence-labelled peptides as substrate at 70 uM after 90 mins by microfluidic peptide phosphorylation assay.

Test [5] deals with Serine/threonine-protein kinase Chk2 (Homo sapiens) (UniProt O96017). Kind of test: Inhibition of human full length CHK2 expressed in baculovirus assessed as substrate phosphorylation using fluorescence-labelled peptides as substrate at 2 uM after 90 mins by microfluidic peptide phosphorylation assay.
Serine/threonine-protein kinase Chk2 (Homo sapiens), sequence (O96017 whole entry): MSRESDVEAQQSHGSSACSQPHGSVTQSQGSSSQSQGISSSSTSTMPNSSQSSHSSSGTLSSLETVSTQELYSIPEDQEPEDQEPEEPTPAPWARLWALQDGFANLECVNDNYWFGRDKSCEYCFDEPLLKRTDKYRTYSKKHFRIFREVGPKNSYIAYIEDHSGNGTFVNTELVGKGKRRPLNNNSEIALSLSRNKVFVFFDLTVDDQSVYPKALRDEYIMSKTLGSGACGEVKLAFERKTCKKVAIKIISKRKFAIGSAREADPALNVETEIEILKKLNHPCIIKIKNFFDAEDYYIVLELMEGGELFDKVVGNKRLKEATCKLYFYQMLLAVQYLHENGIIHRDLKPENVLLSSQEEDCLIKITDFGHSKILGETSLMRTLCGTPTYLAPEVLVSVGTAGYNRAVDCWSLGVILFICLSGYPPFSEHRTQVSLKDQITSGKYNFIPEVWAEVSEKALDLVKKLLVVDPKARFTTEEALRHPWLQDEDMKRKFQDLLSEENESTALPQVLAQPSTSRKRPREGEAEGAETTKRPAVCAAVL

With `NCC1CCN(c2ncnc3[nH]ccc23)CC1`, the inhibition in test [1] came to 4.5%.

On to `Clc1ccc(C2(c3ccc(-c4ncnc5[nH]cnc45)cc3)CCNCC2)cc1`, for which, in test [2], the inhibition amounted to 13%.

As to `NCC1CN(c2ncnc3[nH]c4cnccc4c23)CCO1` (stereo not given), the inhibition in test [3] was found to be 23%. With `CNCc1ccc(-c2ncnc3[nH]cnc23)cc1`, the inhibition in test [4] is 44%.

Take `NC1CCN(c2ncnc3[nH]ccc23)CC1`: the inhibition in test [5] was 0%.
